This note sets out measurements from PMC10362580, “Patient-derived organoids for precision oncology: a platform to facilitate clinical decision making” (BMC Cancer, 2023).

As a reminder, the IC50 is the concentration that inhibits the measured activity by half.

Data set [1] concerns iPSCs-derived hepatocytes. The experiment in a line: Cytoskeleton disruption in hepatocytes (hepatotoxicity). The format is cell-based, human. Particulars: 0.1 ug/ml; hepatocytes from healthy donors, breast cancer and ovarian cancer patients. As to the method: To initiate hepatic differentiation, 10, 000 cells/cm^2 of passage 11 (P11) single cell suspension of iPSCs were seeded on matrigel coated plates in mTeSR™1 media and incubated overnight to obtain 95% confluent culture. Once cells reached > 95% confluence, RPMI media (Gibco) + 2% B27 supplement (Gibco) + 100 ng/ml Activin A (Gibco) + 3 µM CHIR99021 (Stem Cell Technologies) + 2% Matrigel (Corning) was added. Day 1 to 4: RPMI (Gibco) media + 2% B27 supplement (Gibco) + 100 ng/ml Activin A (Sigma). Day 5 to 10: RPMI (Gibco) media + 2% B27 supplement (Gibco) + 10 ng/ml bFGF (Sigma) + 20 ng/ml BMP4 (Sigma) + 0.5% DMSO (Sigma); Day 11 to 15: RPMI 1648 (Gibco) media + 2% B27 supplement (Gibco) + 20 ng/ml HGF (Sigma) + 0.5% DMSO (Sigma); Day 16 to 21: RPMI 1648 (Gibco) media + 2% B27 supplement (Gibco) + 20 ng/ml Oncostatin M (Gibco) + 100 nM Dexamethasone + 20 ng/ml HGF (Sigma) + 0.5% DMSO (Sigma). […] The presence of intracellular glycogen in hepatocytes was assessed by periodic acid–Schiff’s (PAS) staining and nuclei were counterstained with Mayer’s haematoxylin [42]. […]

Data set [2] relates to patient-derived primary ovarian cancer organoids (Tumor Organoid). Put plainly: PDO drug sensitivity and resistance testing (CellTiter-Glo), ovarian tumor organoids. Type of data set: cell-based, human. Particulars: for IC50: Homo sapiens. Here is the method:
(§1) Patient-derived tumor organoid was dissociated to single cells after seven days in culture. Epithelial Cells (from tumor and adjacent normal tissues) in combination with patient-derived isogenic adipose-derived Mesenchymal Stem Cells: iECs: MSCs (3:1:1) were seeded at a density of 5000 cells per well in 96-well clear bottom microplates. Multicellular organoids were allowed to grow for seven days. Breast and ovarian organoids were imaged every day and fed every alternate day with aforementioned Breast organoid medium and Ovarian organoid medium respectively. […] Organoids were subsequently incubated for […]; DMSO only- vehicle control and media only- negative control was used to set the baseline. After 0, 1, 7, 14 and 21 days ATP levels were measured with the CellTiter-Glo (Promega, Wisconsin, USA). All screenings were performed in triplicates. Data were analyzed using GraphPad Prism 6. Drug dose–response curves were visualized using […] analysis [setting: log (inhibitor) versus response, least-squares (ordinary) fit; top constraint 100%]. Concentrations where 50% cell viability (IC50-value) was reached were interpolated. The area under the curve (AUC) was approximated between the lowest and highest concentrations screened in the actual assay with the trapezoid rule for numerical integration. The dose–response curves were plotted as the percentage of the cell viability against the logarithm of drug concentrations in µM and were fitted to estimate the IC50.
(§2) We developed a protocol to culture and expand organoids from tissues collected from ovarian cancer patients. […] We performed drug sensitivity and resistance test (DSRT) using 2 FDA-approved commonly used therapeutic drugs paclitaxel and doxorubicin. Depending on the properties of the individual drugs, the concentrations ranged from 0.001 µM to 1000 µM (Fig. 6).
(§3) Following seven days incubation, organoid cultures were manually inspected using a phase-contrast microscope to check cell health and morphology prior to the addition of drugs. CellTiter-Glo® 2.0 determines the number of viable cells in a well, based on the quantification of ATP present, an indicator of metabolically viable cells. Total cell count was measured by CellTiter-Glo® 2.0, which causes cell lysis and produces a luminescence signal proportional to the amount of ATP present. Following completion of the above quality metrics, the data was normalized or the raw intensity data was used for curve-fitting. • Data normalization: Normalization was completed using the following calculation: (Raw intensity signal- Mean of positive control/ Mean of negative control-Mean positive control)
(In general: In ATP-based viability assays light output follows the ATP content of the culture.)

The subject of data set [3] is Normal Organoid from normal adjacent tissue of ovarian cancer patients. Put plainly: PDO drug sensitivity and resistance testing (CellTiter-Glo), ovarian normal adjacent tissue organoids. The format is cell-based. Particulars: Homo sapiens. Here is the method:
as §1, §2, §3

Data set [4] has as its system patient-derived breast cancer organoids (Tumor Organoid). The experiment in a line: PDO drug sensitivity and resistance testing (CellTiter-Glo), breast tumor organoids. Particulars: for IC50: Homo sapiens. Type of data set: cell-based, human. As to the method:
as §1
(§4) We investigated BC organoids in response to standard medications in order to assess their potential as in vitro disease models. Towards this, PDOs were treated with doxorubicin and paclitaxel (commonly used chemotherapeutic drugs).
as §3

Data set [5] concerns Normal Organoid from normal adjacent tissue of breast cancer patients. Put plainly: PDO drug sensitivity and resistance testing (CellTiter-Glo), breast normal adjacent tissue organoids. Type of data set: cell-based. Particulars: Homo sapiens. As to the method: as §1, §4, §3
Data set [6] has as its system iPSCs-derived forebrain motor neurons. The experiment in a line: Neurite outgrowth assay (neurotoxicity). Conditions: 1 µM; neurons from healthy donor, breast cancer and ovarian cancer patient.
Description: Neurite outgrowth assay was performed to determine neurotoxicity. […] We tested neurotoxic chemotherapeutic drug on iPSC-derived neurons- control (healthy donor), breast cancer and ovarian cancer patients [46–48] using ImageXpress® Nano Automated Imaging System (Molecular Devices).

On to `C/C1=C/C(=O)O[C@@H]2C[C@@H](CC[C@H](C)/C=C\C=C\CC1)O[C@@](O)([C@@H]1CSC(=O)N1)C2` [Latrunculin a], for which the “Cytoskeleton disruption sensitivity, donor comparison” value in data set [1] is “Ovarian cancer patient’s hepatocytes were found more sensitive to Latrunculin followed by breast cancer patient and healthy donor”.
`CC(=O)O[C@H]1C(=O)[C@@]2(C)[C@H]([C@H](OC(=O)c3ccccc3)[C@]3(O)C[C@H](OC(=O)[C@H](O)[C@@H](NC(=O)c4ccccc4)c4ccccc4)C(C)=C1C3(C)C)[C@]1(OC(C)=O)CO[C@@H]1C[C@@H]2O` [Paclitaxel]: the IC50 turned out to be 16.7 µM in data set [2] (168 h, Ovarian Cancer Sample 1, Tumor Organoid, day 7, CTG); 940 µM in data set [2] (168 h, Ovarian Cancer Sample 2, Tumor Organoid, day 7, CTG); 2020 µM in data set [2] (168 h, Ovarian Cancer Sample 3, Tumor Organoid, day 7, CTG); 20 µM in data set [2] (336 h, Ovarian Cancer Sample 1, Tumor Organoid, day 14, CTG); 96 µM in data set [2] (336 h, Ovarian Cancer Sample 2, Tumor Organoid, day 14, CTG); 945 µM in data set [2] (336 h, Ovarian Cancer Sample 3, Tumor Organoid, day 14, CTG). In addition, the IC50 was determined as 0.588 µM in data set [2] (504 h, Ovarian Cancer Sample 1, Tumor Organoid, day 21, CTG); 9.74 µM in data set [2] (504 h, Ovarian Cancer Sample 2, Tumor Organoid, day 21, CTG); 97.6 µM in data set [2] (504 h, Ovarian Cancer Sample 3, Tumor Organoid, day 21, CTG); 22.7 µM in data set [3] (168 h, Ovarian Cancer Sample 1, Normal Organoid, day 7, CTG); 1240 µM in data set [3] (168 h, Ovarian Cancer Sample 2, Normal Organoid, day 7, CTG); 2120 µM in data set [3] (168 h, Ovarian Cancer Sample 3, Normal Organoid, day 7, CTG). The IC50 was found to be 0.625 µM in data set [3] (336 h, Ovarian Cancer Sample 1, Normal Organoid, day 14, CTG); 76.7 µM in data set [3] (336 h, Ovarian Cancer Sample 2, Normal Organoid, day 14, CTG); 1010 µM in data set [3] (336 h, Ovarian Cancer Sample 3, Normal Organoid, day 14, CTG); 0.617 µM in data set [3] (504 h, Ovarian Cancer Sample 1, Normal Organoid, day 21, CTG); 89 µM in data set [3] (504 h, Ovarian Cancer Sample 2, Normal Organoid, day 21, CTG); 97.6 µM in data set [3] (504 h, Ovarian Cancer Sample 3, Normal Organoid, day 21, CTG). The IC50 in data set [4] (168 h, Breast Cancer Sample 1, Tumor Organoid, day 7, CTG) is 83.6 µM; in data set [4] (168 h, Breast Cancer Sample 2, Tumor Organoid, day 7, CTG), 874 µM; in data set [4] (168 h, Breast Cancer Sample 3, Tumor Organoid, day 7, CTG) it was 849 µM; in data set [4] (336 h, Breast Cancer Sample 1, Tumor Organoid, day 14, CTG) it was 96.4 µM; in data set [4] (336 h, Breast Cancer Sample 2, Tumor Organoid, day 14, CTG), 103 µM; in data set [4] (336 h, Breast Cancer Sample 3, Tumor Organoid, day 14, CTG) it was 975 µM. Also, the IC50 stood at 94.9 µM in data set [4] (504 h, Breast Cancer Sample 1, Tumor Organoid, day 21, CTG); 107 µM in data set [4] (504 h, Breast Cancer Sample 2, Tumor Organoid, day 21, CTG); 8.95 µM in data set [4] (504 h, Breast Cancer Sample 3, Tumor Organoid, day 21, CTG); 7.89 µM in data set [5] (168 h, Breast Cancer Sample 1, Normal Organoid, day 7, CTG); 947 µM in data set [5] (168 h, Breast Cancer Sample 2, Normal Organoid, day 7, CTG); 95.1 µM in data set [5] (168 h, Breast Cancer Sample 3, Normal Organoid, day 7, CTG). Further, the 50% inhibitory concentration (IC50) worked out at 8.53 µM in data set [5] (336 h, Breast Cancer Sample 1, Normal Organoid, day 14, CTG); 980 µM in data set [5] (336 h, Breast Cancer Sample 2, Normal Organoid, day 14, CTG); 100 µM in data set [5] (336 h, Breast Cancer Sample 3, Normal Organoid, day 14, CTG); 0.955 µM in data set [5] (504 h, Breast Cancer Sample 1, Normal Organoid, day 21, CTG); 1000 µM in data set [5] (504 h, Breast Cancer Sample 2, Normal Organoid, day 21, CTG); 10.2 µM in data set [5] (504 h, Breast Cancer Sample 3, Normal Organoid, day 21, CTG). Further, the “Viability of organoids (CTG assay)” value in data set [2] (ovarian cancer organoids) and in data set [4] (breast cancer organoids) was “significantly decreased the viability of organoids” throughout. For the same molecule, in data set [4] (few breast cancer PDOs), the “Response of breast cancer PDOs to treatment” value is “sensitive”. For the same molecule, the “Neurite outgrowth sensitivity, donor comparison” value in data set [6] is “Ovarian cancer patient’s neurons were found more sensitive to paclitaxel followed by breast cancer patient and healthy donor”.
